Laboratory results: the NIST ThermoML archive (doi:10.1007/s10765-009-0665-4)

Assays:
[1] = 293.15 K; 101.33 kPa; Liquid; Sing-around technique in a fixed-path interferometer
[2] = xn = mol fraction of the nth substance listed; conditions: 293.15 K, 101 kPa, Liquid; for speed of sound: Sing-around technique in a fixed-path interferometer

C1CCCCC1 [cyclohexane]
Conditions | speed of sound [m/s]
[1] | 1279

C1CCCCC1 [cyclohexane] + CCCCO
[2]
Conditions | mass density [kg/m3] | speed of sound [m/s]
x2 = 0.00115 | 778.6 | 1278.7
x2 = 0.00245 | 778.5 | 1277.7
x2 = 0.0124 | 778.5 | 1274.6
x2 = 0.0262 | 778.7 | 1271.5
x2 = 0.04084 | 778.8 | 1269.3
x2 = 0.07249 | 779.3 | 1265.3
x2 = 0.1395 | 780.4 | 1258.6
x2 = 0.1897 | 781.4 | 1254.6
x2 = 0.3017 | 784 | 1248.8
x2 = 0.5175 | 790.4 | 1244.4
x2 = 0.6162 | 793.7 | 1244.8
x2 = 0.7983 | 800.8 | 1248.2

CCCCCC [hexane]
Conditions | speed of sound [m/s]
[1] | 1098.9

CCCCO [butan-1-ol]
Conditions | speed of sound [m/s]
[1] | 1256.3

CC(C)CO [2-methyl-1-propanol]
Conditions | speed of sound [m/s]
[1] | 1204.1

CCCCCC [hexane] + CCCCO
[2]
Conditions | mass density [kg/m3] | speed of sound [m/s]
x2 = 0.00305 | 659.9 | 1099
x2 = 0.04764 | 664.4 | 1099.2
x2 = 0.1026 | 670.3 | 1099.8
x2 = 0.1225 | 672.4 | 1100.5
x2 = 0.1509 | 675.6 | 1101.6
x2 = 0.2261 | 684.4 | 1105.9
x2 = 0.2979 | 693.4 | 1112.1
x2 = 0.4965 | 720.9 | 1140
x2 = 0.6128 | 738.8 | 1160.2
x2 = 0.6817 | 750.1 | 1174
x2 = 0.7658 | 764.5 | 1192.1
x2 = 0.8937 | 788.1 | 1224.5
